For orientation: IC50 means the concentration that gives 50% inhibition.

This assay has as its target T1, recombinant human NSD2 (Homo sapiens, UniProt O96028).
T1 construct: (amino acids 2-end); His tag (N); host or cells: Sf9 insect cells
T1 sequence (O96028 2-1365 limits assumed): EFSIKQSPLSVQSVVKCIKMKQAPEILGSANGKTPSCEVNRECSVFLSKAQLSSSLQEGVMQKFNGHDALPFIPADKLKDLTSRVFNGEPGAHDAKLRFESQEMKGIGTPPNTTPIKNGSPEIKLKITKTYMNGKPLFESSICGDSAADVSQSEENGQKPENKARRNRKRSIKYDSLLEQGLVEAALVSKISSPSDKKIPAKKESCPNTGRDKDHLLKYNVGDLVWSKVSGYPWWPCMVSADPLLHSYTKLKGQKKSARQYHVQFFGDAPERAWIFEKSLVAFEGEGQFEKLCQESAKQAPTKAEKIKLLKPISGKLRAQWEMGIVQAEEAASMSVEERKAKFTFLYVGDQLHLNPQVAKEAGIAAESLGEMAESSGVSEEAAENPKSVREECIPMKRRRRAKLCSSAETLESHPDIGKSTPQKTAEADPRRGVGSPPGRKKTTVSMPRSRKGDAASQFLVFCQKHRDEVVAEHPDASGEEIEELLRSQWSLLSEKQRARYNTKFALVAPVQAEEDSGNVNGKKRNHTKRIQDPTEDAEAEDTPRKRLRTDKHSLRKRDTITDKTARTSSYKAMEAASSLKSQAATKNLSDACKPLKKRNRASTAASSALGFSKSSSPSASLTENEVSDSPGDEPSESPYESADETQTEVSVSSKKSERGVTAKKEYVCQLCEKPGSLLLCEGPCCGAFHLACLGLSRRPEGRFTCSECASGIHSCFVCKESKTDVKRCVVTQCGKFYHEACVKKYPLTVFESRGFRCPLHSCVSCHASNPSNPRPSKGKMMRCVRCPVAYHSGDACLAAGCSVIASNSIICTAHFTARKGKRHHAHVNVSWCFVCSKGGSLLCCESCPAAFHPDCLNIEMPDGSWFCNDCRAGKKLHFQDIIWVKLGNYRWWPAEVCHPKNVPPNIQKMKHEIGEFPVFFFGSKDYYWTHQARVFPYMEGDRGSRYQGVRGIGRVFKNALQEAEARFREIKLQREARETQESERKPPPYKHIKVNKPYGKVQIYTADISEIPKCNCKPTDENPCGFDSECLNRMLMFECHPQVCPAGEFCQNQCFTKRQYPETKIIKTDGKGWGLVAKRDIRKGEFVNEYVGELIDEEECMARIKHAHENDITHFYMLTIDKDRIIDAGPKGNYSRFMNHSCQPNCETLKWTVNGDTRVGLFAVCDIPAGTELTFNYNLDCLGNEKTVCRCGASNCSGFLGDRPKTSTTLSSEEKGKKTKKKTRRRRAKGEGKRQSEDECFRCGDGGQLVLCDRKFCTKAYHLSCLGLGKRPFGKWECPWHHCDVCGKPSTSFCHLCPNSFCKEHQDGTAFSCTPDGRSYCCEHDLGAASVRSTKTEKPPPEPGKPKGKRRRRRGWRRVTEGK
The experiment in a line: NSD2 inhibition assay (3H-SAM histone methyltransferase, oligonucleosome substrate). It is filed as biochemical. The conditions noted are these: recombinant human NSD2 (aa 2-end, His tag) 2 nM, chicken oligonucleosomes 0.05 mg/ml, 3H-SAM 1 μM, 1 hour at 30° C. The method, then: The NSDS2 inhibitory activity of a compound can be evaluated using a NSD2 inhibition assay, such as the NSD2 inhibition assay described herein below.
A reaction mixture can be prepared by adding oligonucleosomes from Chicken (0.05 mg/ml) to freshly prepared reaction buffer containing 50 mM Tris-HCl (pH 8.5), 50 mM NaCl, 5 mM MgCl2, 0.01% Brij35, 1 mM DTT, and 1% DMSO followed by the addition of recombinant human NSD2, (amino acids 2-end) with N-terminal His tag (2 nM; GenBank Accession No. NM_001042424; MW=155.5 kDa; expressed in Sf9 insect cells) and gentle mixing. The test compound is diluted in DMSO, added to the reaction mixture in nanoliter amounts (using, e.g., Acoustic Technology (Echo 550, LabCyte Inc. Sunnyvale, CA)) and incubated for 20 minutes at room temperature. The reaction may be initiated by addition of S-Adenosyl-L-[methyl-3H]methionine (3H-SAM; 1 μM), and the mixture is then incubated for 1 hour at 30° C. The reaction mixture can be delivered to filter paper and the methylated substrate quantified by scintillation counting. Data analysis may be performed using Excel and GraphPad Prism software for IC50 curve fits. For additional information on the histone methyltransferase assay, see, for example, Horiuchi K Y, et al., “Assay Development for Histone Methyltransferases,” Assay Drug Dev Technol. 2013 May; 11(4):227-36.

With `[2H]C([2H])([2H])Oc1cc(F)c(-c2cc(Cn3cnc4c(N)ncnc43)c(N3CCC[C@](N)([C@H](O)C(F)F)C3)cn2)cc1F`, the half-maximal inhibitory concentration (IC50) is under 10 nM.

These data come from patent US20250171445A1, “DEUTERIUM-ENRICHED PIPERIDINYL-METHYL-PURINE AMINE SALTS, CRYSTALLINE FORMS, AND THEIR USE IN TREATING MEDICAL DISEASES AND CONDITIONS” (K36 Therapeutics, Inc., priority 2023, published 2025).
